Patent US5504240A, “Borane-hydroxydialkylsulfide borates” (Aldrich Chemical Company, Inc., priority 1995, dated 1996)
≈ marks a conversion by molar mass, not a printed value.

Test: not given
Details: prior art; cited from earlier work

Row | SMILES | stability
1 | [BH3-][S+]1CCOCC1 [Borane-1,4-thioxane] | stable over prolonged periods
2 | [BH3-][S+](C)C [Borane-methyl sulfide] | much more stable than borane-tetrahydrofuran
3 | [BH3-][O+]1CCCC1 [Borane-tetrahydrofuran] | unstable over a period of time

Test: solubility in water of hydroxysulfides (1 g per ... mL H2O)
Assay type: physicochemical
Details: mL H2O per 1 g hydroxysulfide

Row | solubility in water 1 g per ... mL H2O [mL] | SMILES
4 | 100 | CC(C)CCSCCOCCOCCO [i-AmSCH2 CH2 OCH2 CH2 OCH2 CH2 OH, 2-2-2-(isoamylthio)ethoxy!ethoxy!ethanol]
5 | < 100 | CC(C)CCSCCOCCO [i-AmSCH2 CH2 OCH2 CH2 OH, 2-2-(isoamylthio)ethoxy!ethanol]
6 | < 100 | CC(C)CCSCCO [i-AmSCH2 CH2 OH, 2-(isoamylthio)ethanol]

Same assay, conditions: water

Row | solubility in water 1 g per ... mL H2O (in words) | SMILES
7 | miscible | COCCSCCO [H3 COCH2 CH2 SCH2 CH2 OH, 2-(2-methoxyethylthio)ethanol]
8 | miscible | CCSCCOCCO [EtSCH2 CH2 OCH2 CH2 OH, 2-2-(ethylthio)ethoxy!ethanol]
9 | miscible | CCSCCOCCOCCO [Et--SCH2 CH2 OCH2 CH2 OCH2 CH2 OH, 2-2-2-(ethylthio)ethoxy!ethoxy!ethanol]
10 | miscible | CC(C)(C)SCCOCCOCCO [t-BuSCH2 CH2 OCH2 CH2 OCH2 CH2 OH, 2-2-2-(tert-butylthio)ethoxy!ethoxy!ethanol]

Same assay, conditions: water; mL H2O per 1 g hydroxysulfide

Row | solubility [mg/mL] | SMILES
11 | 66.7 (≈ 374 mM) | CC(C)(C)SCCOCCO [t-BuSCH2 CH2 OCH2 CH2 OH, 2-2-(tert-butylthio)ethoxy!ethanol]
12 | 20 (≈ 149 mM) | CC(C)(C)SCCO [t-BuSCH2 CH2 OH, 2-(tert-butylthio)ethanol]

Test: not given
Details: in BH3; liquid; prior art; cited from earlier work

Row | SMILES | borane concentration [M]
13 | [BH3-][S+]1CCOCC1 [Borane-1,4-thioxane] | 8

Test: active hydride analysis of borane adducts ([BH3], by hydrolysis and hydrogen evolved)
Assay type: physicochemical
Details: estimated by hydrolysis in water:glycerol:THF 1:1:1 and measuring hydrogen evolved
Procedure: Alternatively, borate esters were prepared from the reaction of borane-tetrahydrofuran with hydroxysulfide in molar ratio 1:3. Quantitative borate ester formation was confirmed by measuring the hydrogen evolved. Warming of the reaction mixture (60°-65° C.) is necessary to drive the reaction to completion. Generally speaking, the novel compounds of this invention are conveniently prepared in a straight-forward procedure by passing diborane into a neat borate ester at 0° C. in a bubbler provided with a stirrer. Excess diborane not absorbed by the borate ester is absorbed in a down-stream bubbler containing tetrahydrofuran over mercury and cooled in ice water. A mercury bubbler is connected to the exit. Diborane is passed into the ester until the concentration of excess borane in THF reaches approximately 1M. The borane-borate adduct is stirred overnight at room temperature prior to disconnecting the bubblers and analyzed for active hydride following the procedure described by Brown, H. C., Organic Syntheses via Boranes, J. Wiley: New York, 1975, p. 191, using a 2M hydrochloric acid-glycerol-water(2:1:1) hydrolysis solution.
A 100 ml one-neck, round-bottom flask equipped with a septum inlet, magnetic stirring bar and an adapter with a stopcock was charged with boron trifluoride diglyme (20 mmol). A 2M solution of sodium borohydride in triglyme (7.5 ml, 15 mmol) was added dropwise by means of a hypodermic syringe. Generation of diborane is smooth and the reaction is not exothermic. Generated diborane was passed through a bubbler containing sodium borohydride (0.1 g) in diglyme (5 ml) and a trap cooled to -78° C. was absorbed in neat 2-(tert-butylthio)ethanol (7.94 g, 60 mmol) at room temperature. After the addition was completed, the solution of borate was stirred at 50° C. for 15 min under a slow stream of nitrogen to produce the borate ester tris 2-(tert-butylthio)ethyl borate at room temperature. Escaped diborane was absorbed in the following bubbler containing tetrahydrofuran (10 ml) over mercury and cooled in ice water. A mercury bubbler was connected to the exit. Diborane was passed into the solution until the concentration of borane in the THF reached approximately 1M. The borane adduct, a colorless liquid, was analyzed for active hydride by a standard procedure using a water:glycerol:THF 1:1:1 hydrolyzing mixture. Concentration 6.4M, ^11 B NMR δ -26.03.
^b Estimated by hydrolysis in water: glycerol: THF 1:1:1 and measurin

Row | SMILES | [BH3] [M]
14 | [BH3-][S+](CCOC)CCOB(OCC[S+]([BH3-])CCOC)OCC[S+]([BH3-])CCOC (stereo not drawn) [9i, tris 2-(2-Methoxyethylthio)ethyl!borate borane adduct (1:3)] | 6.0
15 | [BH3-][S+](CC)CCOCCOCCOB(OCCOCCOCC[S+]([BH3-])CC)OCCOCCOCC[S+]([BH3-])CC (stereo not drawn) [9f, tris 2-2-2-(Ethylthio)ethoxy!ethoxy!ethyl!borate borane adduct (1:3)] | 5.2
16 | [BH3-][S+](CCOCCOB(OCCOCC[S+]([BH3-])C(C)(C)C)OCCOCC[S+]([BH3-])C(C)(C)C)C(C)(C)C (stereo not drawn) [9d, tris 2-2-(tert-Butylthio)ethoxy!ethyl!borate borane adduct (1:3)] | 5.5
17 | [BH3-][S+](CC)CCOCCOB(OCCOCC[S+]([BH3-])CC)OCCOCC[S+]([BH3-])CC (stereo not drawn) [9c, tris 2-2-(Ethylthio)ethoxy!ethyl!borate borane adduct (1:3)] | 5.7
18 | [BH3-][S+](CCOB(OCC[S+]([BH3-])CCC(C)C)OCC[S+]([BH3-])CCC(C)C)CCC(C)C (stereo not drawn) [9b] | 5.9
19 | [BH3-][S+](CCOB(OCC[S+]([BH3-])C(C)(C)C)OCC[S+]([BH3-])C(C)(C)C)C(C)(C)C (stereo not drawn) [9a, Tris 2-(tert-Butylthio)ethyl!borate borane adduct (1:3)] | 6.4
20 | [BH3-][S+](CCOCCOCCOB(OCCOCCOCC[S+]([BH3-])CCC(C)C)OCCOCCOCC[S+]([BH3-])CCC(C)C)CCC(C)C (stereo not drawn) [9h, tris 2-2-2-(Isoamylthio)ethoxy!ethoxy!ethyl!borate borane adduct (1:3)] | 4.0
21 | [BH3-][S+](CCOCCOB(OCCOCC[S+]([BH3-])CCC(C)C)OCCOCC[S+]([BH3-])CCC(C)C)CCC(C)C (stereo not drawn) [9e, tris 2-2-(Isoamylthio)ethoxy!ethyl borate borane adduct (1:3)] | 5.0
22 | [BH3-][S+](CCOCCOCCOB(OCCOCCOCC[S+]([BH3-])C(C)(C)C)OCCOCCOCC[S+]([BH3-])C(C)(C)C)C(C)(C)C (stereo not drawn) [9g, tris 2-2-2-(tert-Butylthio)ethoxy!ethoxy!ethyl!borate borane adduct (1:3)] | 4.2

Test: not given
Details: prior art; cited from earlier work
Remark: another data set of the same source

Row | SMILES | solubility in water
23 | [BH3-][S+]1CCOCC1 [Borane-1,4-thioxane] | limited solubility in water
24 | CSC [dimethyl sulfide] | not soluble in water
